Data taken from patent US20170071902A1, “NOX INHIBITOR AND NFkB INHIBITOR CONTAINING METHOXYFLAVONE” (SUNTORY HOLDINGS LIMITED, priority 2014, published 2017).
Where two headings read alike, the source gives them in different places.

Columns and labels:
NOX (NADPH oxidase) = molecular target: T1, NOX (NADPH oxidase) (Homo sapiens, UniProt P04839); experiment: NOX activity measurement in a cell-free system using a homogenate of differentiated HL-60 cells (NADPH consumption, fluorometry); type: biochemical; details: for NOX inhibitory activity (distribution %): share of the black ginger extract's NOX inhibitory activity per compound
T1 construct: endogenous in cells; host or cells: HL-60 cells differentiated with 1% DMSO, used as a sonicated homogenate supernatant (A1) or as viable cells (A2)
T1 sequence (P04839 2-570 limits assumed): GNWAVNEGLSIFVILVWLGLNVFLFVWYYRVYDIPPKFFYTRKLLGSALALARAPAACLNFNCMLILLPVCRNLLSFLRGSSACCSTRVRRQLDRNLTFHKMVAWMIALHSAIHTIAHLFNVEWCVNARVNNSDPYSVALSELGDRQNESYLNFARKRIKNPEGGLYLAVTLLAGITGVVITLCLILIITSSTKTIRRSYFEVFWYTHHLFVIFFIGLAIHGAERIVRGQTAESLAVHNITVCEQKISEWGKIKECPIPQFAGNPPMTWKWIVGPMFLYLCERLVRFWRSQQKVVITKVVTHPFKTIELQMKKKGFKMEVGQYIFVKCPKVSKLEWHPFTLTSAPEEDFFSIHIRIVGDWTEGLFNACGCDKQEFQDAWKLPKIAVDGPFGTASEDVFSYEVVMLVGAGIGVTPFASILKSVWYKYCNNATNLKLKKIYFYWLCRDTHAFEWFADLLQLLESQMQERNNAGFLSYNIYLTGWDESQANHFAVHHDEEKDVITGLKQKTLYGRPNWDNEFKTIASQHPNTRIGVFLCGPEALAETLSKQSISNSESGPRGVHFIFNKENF
T1 sequence (P13498 2-195 partner limits assumed): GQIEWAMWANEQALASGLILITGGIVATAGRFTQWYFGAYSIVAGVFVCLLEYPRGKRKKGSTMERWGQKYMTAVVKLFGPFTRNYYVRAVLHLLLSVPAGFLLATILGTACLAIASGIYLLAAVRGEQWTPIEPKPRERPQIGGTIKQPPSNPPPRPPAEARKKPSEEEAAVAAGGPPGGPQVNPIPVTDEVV
Source text: Human myeloid leukemia cell HL-60 repeats proliferation in an undifferentiated state but upon addition of DMSO (dimethyl sulfoxide), retinoic acid or the like, it is known to differentiate into mature granulocytes and lose the ability to proliferate, as accompanied by intracellular expression of NOX (NADPH oxidase) which also serves as an index for differentiation; the expressed NOX can be utilized as an enzyme source for evaluating NOX inhibitory activity.
To induce differentiation into NOX expressing granulocytes, undifferentiated HL-60 cells cultured in a 10% FBS supplemented RPMI 1640 medium were suspended in a 1% DMSO containing, 10% FBS supplemented RPM 11640 medium to give a density of 5×10^5 cells/ml, and the suspension was distributed among Petri dishes (i.d. 10 cm) in 15 ml portions and cultured in a CO2 incubator (37° C.) for three days; thereafter, 10 ml of a 1% DMSO containing, 10% FBS supplemented RPM 11640 medium was added into each of the Petri dishes and culture was performed for an additional three days, thus yielding differentiated HL-60 cells in which NOX was expressed. As described below, the differentiated HL-60 cells, either as a homogenate or in a viable state, were subjected to NOX activity measurement.
After being cooled with ice, the suspension was treated with a sonicator (Bioruptor UCD-250 HSA; product of Cosmo Bio Co., Ltd.) by repeating three cycles of a process under the condition of 4° C. or below that consisted of 20-sec disrupting at maximum power and 30-sec interval cooling, whereupon a cell homogenate was obtained. The homogenate was centrifuged at 1000 g for 4 minutes to remove debris; to the resulting supernatant, nine volumes of a reaction buffer (65 mM phosphate buffered solution containing 1 mM EGTA, 10 μM FAD and 170 mM sucrose; pH 7.0) were added to prepare a homogenate's supernatant for NOX activity measurement (equivalent to 1×10^7 cells/ml).
For reaction with NOX, 50 μl of the above-described cell homogenate was poured into each well of a 96-well microplate and after adding 25 μl of a 0.5 mM SDS solution as a NOX activator and 25 μl of a 0.4 mM NADPH solution as a substrate, the reaction was carried out at 25° C. for 30-90 minutes. The NOX activity was determined by measuring the rate of NADPH consumption through fluorometry (Ex: 355 nm/Em: 460 nm).

NFκB = NFκB inhibiting action: nitrous acid production in LPS-stimulated RAW 264.7 cells (Griess reagent); type: cell-based; details: Mus musculus, RAW264.7, 24 h; read-out: NFκB inhibition IC50
Procedure: It is known that when macrophage-like RAW 264.7 cells are stimulated with LPS (lipopolysaccharide), NFκB is activated, whereby the expression of iNOS (inducible NO synthetase) is enhanced, causing nitrous acid to accumulate in the culture broth due to the enzymatic activity of iNOS; the activation of NFκB can therefore be evaluated by measuring the buildup of nitrous acid in the culture broth.
RAW 264.7 cells were cultured in a 10% FBS supplemented RPMI 1640 culture broth. The cells were then suspended in the same culture broth to give a density of 4×10^5 cells/ml; the suspension was distributed on a 96-well microplate in 100 μl portions per well and subjected to pre-culture (in a CO2 incubator) for 24 hr. […] To measure NFκB inhibitory activity, a DMSO solution of each test sample was dissolved in the foregoing culture broth to make 3-fold serial dilutions having DMSO concentrations of 1% and less and absorbance was measured with and without adding the stimulant LPS.

[1] = Example 4, cell-free system using a homogenate of differentiated HL-60 cells, methoxyflavonoid comparison, read-out: IC50 (μM), NOX inhibitory activity
[2] = cell-free system using a homogenate
[3] = Example 5, cell-free system using a homogenate, compounds extracted and fractionated from black ginger, read-out: NOX inhibition IC50

SMILES	IC50 (NOX (NADPH oxidase); [1]) [µM]	IC50 (NFκB) [µM]	IC50 (NOX (NADPH oxidase); [3]) [µM]	also measured
COc1cccc(/C=C/C(=O)c2ccccc2O)c1OC [2,3-Dimethoxy-2′-hydroxychalcone]	> 100			
COc1ccc(CCC(=O)c2c(O)cc(OC)cc2O)cc1 [2′,6′-Dihydroxy-4,4′-dimethoxydihydrochalcone]	> 100			
COc1cc(O)c(C(=O)/C=C/c2ccccc2)c(O)c1 [2′,6′-Dihydroxy-4′-methoxychalcone]	> 100			
COc1ccc2c(=O)c(OC)c(-c3ccc(OC)c(OC)c3)oc2c1 [3,7,3′,4′-tetramethoxyflavone]	> 100			
CC(=O)c1cc2ccccc2oc1=O [3-Acetylcoumarin]	> 100			
O=c1cc(-c2ccc(O)c(O)c2)oc2ccccc12 [3′,4′-Dihydroxyflavone]	75			
COc1ccc(-c2cc(=O)c3ccccc3o2)cc1OC [3′,4′-Dimethoxyflavone]	15			
COc1ccc(/C=C/C(=O)c2ccccc2)cc1 [4-Methoxychalcone]	> 100			
COc1ccc(C(=O)/C=C/c2ccccc2)cc1 [4′-Methoxychalcone]	> 100			
COc1cc(-c2cc(=O)c3c(OC)c(OC)c(OC)cc3o2)cc(OC)c1OC [5,6,7,3′,4′,5′-Hexamethoxyflavone]	~100			
COc1ccc(-c2cc(=O)c3c(OC)c(OC)c(OC)c(OC)c3o2)cc1OC [5,6,7,8,3′,4′-Hexamethoxyflavone]	80			NOX inhibitory activity (in words) (NOX (NADPH oxidase); [2]): not found to have any strong NOX inhibitory activity
COc1cc(OC)c2c(=O)cc(-c3cc(OC)c(OC)c(OC)c3)oc2c1 [5,7,3′,4′,5′-Pentamethoxyflavone]	> 100			
COc1ccc(-c2oc3cc(O)cc(O)c3c(=O)c2OC)cc1O [5,7,3′-Trihydroxy-3,4′-dimethoxyflavone]	~100			
COc1cc(C2CC(=O)c3c(O)cc(O)cc3O2)cc(OC)c1OC (centres unmarked) [5,7-Dihydroxy-3′,4′,5′-trimethoxyflavanone]	> 100			
COc1cc(C)c2c(=O)c(-c3ccccc3)coc2c1 [5-Methyl-7-methoxy-isoflavone]	> 100			
O=c1cc(-c2ccc(O)c(O)c2)oc2c(O)c(O)ccc12 [7,8,3′,4′-Tetrahydroxyflavone]	~100			
COc1ccc(-c2cc(=O)c3ccc(OC)c(OC)c3o2)cc1OC [7,8,3′,4′-Tetramethoxyflavone]	~100			

SMILES	IC50 (NOX (NADPH oxidase); [1]) [µM]	IC50 (NFκB) [µM]	IC50 (NOX (NADPH oxidase); [3]) [µM]	also measured
COc1cc2ccc(=O)oc2c(C(C)=O)c1OC [8-Acetyl-6,7-dimethoxycoumarin]	> 100			
COc1c(O)cc2ccc(=O)oc2c1C(C)=O [8-Acetyl-6-hydroxy-7-methoxycoumarin]	> 100			
CC(=O)c1c(O)ccc2ccc(=O)oc12 [8-Acetyl-7-hydroxycoumarin]	> 100			
COc1ccc2ccc(=O)oc2c1C(C)=O [8-Acetyl-7-methoxycoumarin]	> 100			
COc1cc(OC)c2c(=O)cc(-c3ccc(OC)c(OC)c3)oc2c1 [KPEt-21, 5,7,3′,4′-Tetramethoxyflavone]	8	6	38	NOX inhibitory activity (distribution %) (NOX (NADPH oxidase); Example 5): 12%; NOX inhibitory activity (in words) (NOX (NADPH oxidase); [2]): strong NOX inhibitory activity
COc1cc(OC)c2c(=O)c(OC)c(-c3ccc(OC)c(OC)c3)oc2c1 [KPEt-22, 3,5,7,3′,4′-Pentamethoxyflavone]	23	32	70	NOX inhibitory activity (distribution %) (NOX (NADPH oxidase); Example 5): 45%; NOX inhibitory activity (in words) (NOX (NADPH oxidase); [2]): strong NOX inhibitory activity
COc1cc(OC)c2c(=O)cc(-c3ccccc3)oc2c1 [KPEt-23, 5,7-Dimethoxyflavone]		7	53	NOX inhibitory activity (distribution %) (NOX (NADPH oxidase); Example 5): 19%
COc1ccc(-c2cc(=O)c3c(OC)cc(OC)cc3o2)cc1 [KPEt-25, 5,7,4′-Trimethoxyflavone]		7	53	NOX inhibitory activity (distribution %) (NOX (NADPH oxidase); Example 5): 21%
COc1cc(O)c2c(=O)c(OC)c(-c3ccc(OC)c(OC)c3)oc2c1 [KPEt-41, 5-hydroxy-3,7,3′,4′-Tetramethoxyflavone]		55	> 100	
COc1cc(OC)c2c(=O)c(OC)c(-c3ccccc3)oc2c1 [KPEt-261, 3,5,7-Trimethoxyflavone]		27	> 100	
COc1ccc(-c2oc3cc(OC)cc(OC)c3c(=O)c2OC)cc1 [KPEt-262, 3,5,7,4′-Tetramethoxyflavone]		32	> 100	
COc1cc(O)c2c(=O)cc(-c3ccccc3)oc2c1 [KPEt-421, 5-hydroxy-7-Methoxyflavone]		42	> 100	
COc1ccc(-c2cc(=O)c3c(O)cc(OC)cc3o2)cc1 [KPEt-422, 5-hydroxy-7,4′-Dimethoxyflavone]		56	> 100	
COc1cc(O)c2c(=O)c(OC)c(-c3ccccc3)oc2c1 [KPEt-431, 5-hydroxy-3,7-Dimethoxyflavone]		29	> 100	
COc1ccc(-c2oc3cc(OC)cc(O)c3c(=O)c2OC)cc1 [KPEt-432, 5-hydroxy-3,7,4′-Trimethoxyflavone]		30	> 100	
CC(=O)OC(C)(C)[C@@H]1Cc2c(ccc3ccc(=O)oc23)O1 [o-Acetylcolumblanetin]	19			
